Key:
Assay in all cases: PubChem AID 588471
[1] = biological target: Protein-arginine deiminase type-1 (Homo sapiens) (UniProt Q9ULC6); conditions: recombinant PAD1-4, BAEE citrulline colorimetric absorbance; PAD1
[2] = biological target: Protein-arginine deiminase type-2 (Homo sapiens) (UniProt Q9Y2J8); conditions: recombinant PAD1-4, BAEE citrulline colorimetric absorbance; PAD2
[3] = biological target: Protein-arginine deiminase type-3 (Homo sapiens) (UniProt Q9ULW8); conditions: recombinant PAD1-4, BAEE citrulline colorimetric absorbance; PAD3
Sequence of Protein-arginine deiminase type-3 (Homo sapiens) (Q9ULW8 whole entry, looked up): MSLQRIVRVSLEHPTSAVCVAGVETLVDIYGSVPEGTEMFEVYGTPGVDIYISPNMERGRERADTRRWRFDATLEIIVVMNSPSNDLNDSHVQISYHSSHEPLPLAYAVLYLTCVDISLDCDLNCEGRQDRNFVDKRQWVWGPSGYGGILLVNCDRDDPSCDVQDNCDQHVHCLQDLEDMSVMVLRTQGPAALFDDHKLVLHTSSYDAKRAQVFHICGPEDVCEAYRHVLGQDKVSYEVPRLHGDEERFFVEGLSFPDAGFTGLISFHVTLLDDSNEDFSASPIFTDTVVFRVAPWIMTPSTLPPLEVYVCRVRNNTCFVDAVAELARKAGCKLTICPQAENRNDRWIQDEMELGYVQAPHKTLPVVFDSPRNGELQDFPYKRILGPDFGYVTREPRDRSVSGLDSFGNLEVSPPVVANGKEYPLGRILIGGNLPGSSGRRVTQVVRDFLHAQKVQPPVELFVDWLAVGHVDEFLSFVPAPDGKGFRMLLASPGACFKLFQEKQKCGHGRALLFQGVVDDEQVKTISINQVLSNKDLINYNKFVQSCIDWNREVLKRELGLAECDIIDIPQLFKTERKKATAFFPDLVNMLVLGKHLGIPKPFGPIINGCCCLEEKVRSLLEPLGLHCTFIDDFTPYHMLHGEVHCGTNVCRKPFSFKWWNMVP

[4] = biological target: Protein-arginine deiminase type-4 (Homo sapiens) (UniProt Q9UM07); conditions: recombinant PAD1-4, BAEE citrulline colorimetric absorbance; PAD4
Sequence of Protein-arginine deiminase type-4 (Homo sapiens) (Q9UM07 whole entry, looked up): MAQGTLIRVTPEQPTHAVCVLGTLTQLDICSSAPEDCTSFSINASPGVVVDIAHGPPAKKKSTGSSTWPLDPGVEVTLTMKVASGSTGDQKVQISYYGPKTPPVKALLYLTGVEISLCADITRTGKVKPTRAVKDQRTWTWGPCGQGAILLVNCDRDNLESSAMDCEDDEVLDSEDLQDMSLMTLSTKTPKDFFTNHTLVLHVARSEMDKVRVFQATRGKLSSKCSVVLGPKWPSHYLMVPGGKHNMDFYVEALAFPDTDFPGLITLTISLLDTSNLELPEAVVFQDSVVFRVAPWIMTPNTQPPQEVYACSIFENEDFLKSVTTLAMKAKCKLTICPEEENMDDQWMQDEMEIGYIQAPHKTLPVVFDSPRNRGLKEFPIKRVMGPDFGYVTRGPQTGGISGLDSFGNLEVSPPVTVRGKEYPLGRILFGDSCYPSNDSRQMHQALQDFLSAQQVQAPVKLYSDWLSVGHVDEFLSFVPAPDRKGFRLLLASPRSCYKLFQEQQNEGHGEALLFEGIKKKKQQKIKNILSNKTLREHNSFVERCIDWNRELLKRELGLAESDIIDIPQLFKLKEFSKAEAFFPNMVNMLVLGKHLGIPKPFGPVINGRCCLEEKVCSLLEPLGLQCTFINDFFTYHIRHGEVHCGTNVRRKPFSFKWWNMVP

Sequence of Protein-arginine deiminase type-2 (Homo sapiens) (Q9Y2J8 whole entry, looked up): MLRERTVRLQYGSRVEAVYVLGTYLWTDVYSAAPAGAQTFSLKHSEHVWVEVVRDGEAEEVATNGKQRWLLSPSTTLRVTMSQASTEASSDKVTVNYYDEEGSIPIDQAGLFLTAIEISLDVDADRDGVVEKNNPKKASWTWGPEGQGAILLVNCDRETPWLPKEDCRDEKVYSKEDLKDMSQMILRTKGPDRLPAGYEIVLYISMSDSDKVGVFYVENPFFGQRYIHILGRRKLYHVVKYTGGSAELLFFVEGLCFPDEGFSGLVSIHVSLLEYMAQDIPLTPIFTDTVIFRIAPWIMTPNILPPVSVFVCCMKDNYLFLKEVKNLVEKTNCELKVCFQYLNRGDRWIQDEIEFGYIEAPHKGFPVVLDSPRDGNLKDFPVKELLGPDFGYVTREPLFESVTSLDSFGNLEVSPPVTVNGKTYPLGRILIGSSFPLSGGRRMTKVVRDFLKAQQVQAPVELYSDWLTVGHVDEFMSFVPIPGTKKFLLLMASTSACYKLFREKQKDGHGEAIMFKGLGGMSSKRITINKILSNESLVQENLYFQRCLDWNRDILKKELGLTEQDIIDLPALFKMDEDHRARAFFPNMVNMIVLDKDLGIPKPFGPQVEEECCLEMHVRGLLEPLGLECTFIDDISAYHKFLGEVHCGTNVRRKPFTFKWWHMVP
Sequence of Protein-arginine deiminase type-1 (Homo sapiens) (Q9ULC6 whole entry, looked up): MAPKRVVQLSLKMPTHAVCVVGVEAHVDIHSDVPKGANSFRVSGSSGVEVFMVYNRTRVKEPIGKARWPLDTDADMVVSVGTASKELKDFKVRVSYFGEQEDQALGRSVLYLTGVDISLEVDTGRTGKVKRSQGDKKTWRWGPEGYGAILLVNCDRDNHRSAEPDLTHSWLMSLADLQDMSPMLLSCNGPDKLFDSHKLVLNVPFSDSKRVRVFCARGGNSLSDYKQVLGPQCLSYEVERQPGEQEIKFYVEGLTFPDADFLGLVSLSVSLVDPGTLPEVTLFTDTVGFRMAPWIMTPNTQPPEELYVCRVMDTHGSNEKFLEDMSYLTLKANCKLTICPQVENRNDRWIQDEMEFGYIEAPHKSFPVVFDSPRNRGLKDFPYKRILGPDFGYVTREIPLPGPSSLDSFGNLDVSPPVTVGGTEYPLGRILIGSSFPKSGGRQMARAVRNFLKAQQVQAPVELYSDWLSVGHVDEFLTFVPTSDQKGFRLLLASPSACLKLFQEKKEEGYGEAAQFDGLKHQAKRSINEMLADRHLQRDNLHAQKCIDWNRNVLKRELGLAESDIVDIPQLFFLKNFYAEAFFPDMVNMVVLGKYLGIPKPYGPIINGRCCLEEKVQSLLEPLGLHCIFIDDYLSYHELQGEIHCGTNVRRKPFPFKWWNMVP

- IC50 [1]: 950 nM
- IC50 [2]: 320 nM
- IC50 [3]: 130 nM
- IC50 [4]: 640 nM
SMILES: NC1=CC(=O)c2ccc(-c3ccccn3)nc2C1=O

Source: PubChem BioAssay AID588471 (The Scripps Research Institute Molecular Screening Center, 2011)
